Test results from patent US8629275B2, “AHCY hydrolase inhibitors for treatment of hyper homocysteinemia” (Merck Sharp & Dohme Corp., priority 2008, dated 2014).

Experiments:
[1] = mice; Shea et al, Neuromolecular Medicine 2004; cited from earlier work
AHCY = target: T1, AHCY (Homo sapiens, UniProt P23526); assay: Cell-based assay of AHCY inhibition (secreted homocysteine); settings: secreted homocysteine from HEK293 and/or SH-SY5Y cells, 72 hrs; Example 1 average of n=4, Example 2 n=1
T1 construct: endogenous in cells; host or cells: HEK293 and/or SH-SY5Y
T1 sequence (P23526 2-432 limits assumed): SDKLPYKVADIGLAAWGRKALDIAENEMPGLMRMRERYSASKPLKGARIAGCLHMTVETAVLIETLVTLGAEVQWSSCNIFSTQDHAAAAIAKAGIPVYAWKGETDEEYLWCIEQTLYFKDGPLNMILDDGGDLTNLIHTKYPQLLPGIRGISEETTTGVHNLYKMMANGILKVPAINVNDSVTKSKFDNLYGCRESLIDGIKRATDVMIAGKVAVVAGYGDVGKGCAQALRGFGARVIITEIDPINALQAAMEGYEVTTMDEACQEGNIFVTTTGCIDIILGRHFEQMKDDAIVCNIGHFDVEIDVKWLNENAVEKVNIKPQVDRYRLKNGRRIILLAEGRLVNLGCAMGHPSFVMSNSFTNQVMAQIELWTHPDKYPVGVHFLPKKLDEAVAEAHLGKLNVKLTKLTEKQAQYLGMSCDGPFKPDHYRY
Excerpt: Cell-Based Assay of AHCY Inhibition
Post treatment collection of the adherent Hek293 and/or SH-SY5Y cells is also made for a viability and proliferation measure. Since the amount of secreted homocysteine is limited by the amount of SAH that is converted to homocysteine in the cells and its subsequent secretion, an EC50 measure and % inhibition relative to DMSO control cells can be made. Since the amount of secreted metabolites such as homocysteine can also be related to the absolute and cellular viability, an MTT (3-(4,5-Dimethylthiazol-2-yl)-2,5-diphenyltetrazolium bromide) measure of proliferation and relative cytotoxicty (as compared to control conditions) may also be made.
The day before compound treatment, plate 20,000 cells (Hek293 or SH-SY5Y) in 96 well cell culture treated plates in 100 μl of cell culture media (DMEM and 10% fetal bovine serum). • 2. Add fresh media plus compound (and DMSO treated controls) for 72 hrs. • 3. Collect conditioned media for measurement of secreted homocysteine and perform viability/proliferation assay on adherent cells. Measure of Secreted Homocysteine: • 1. Add 25 μl conditioned media, standard or control in 96-well assay plate • 2. Add 25 μl internal standard • 3. Add 10 μl reduction solution • 4. […] Detection: Fluorescence: Excitation 385 DM, Emission 515 nm • v. […] ReaDMEMd absorbance at 550 nm and 690 nM. • 6. Express readout as 550 nM-690 nM.

[2] = target: recombinant expressed human or mouse AHCY enzyme (UniProt P23526); assay: In vitro AHCY activity assay (ThioGlo1 fluorescence, hydrolysis of SAH); format: biochemical; settings: Example 1 average of n=3, Example 2 n=1
Description: In vitro AHCY Activity Assay
The AHCY enzyme assay is based on the principle of fluorescence emission following incubation of a reactive dye with the products of an AHCY catalyzed reaction. The reactive dye (Thioglo1) binds homocysteine through its thiol-containing moiety. The products of the AHCY catalyzed reaction, adenosine and homocysteine, are produced from the hydrolysis of SAH (s-adenosylhomocysteine) through AHCY's hydrolase activity.
The reaction is optimized in 96-, 384-, 1536- and 3456-assay plate formats, with recombinant expressed human or mouse AHCY enzyme. When run under initial velocity conditions, the assay is suitable for IC50 and % inhibition calculations.
• 1) ThioGlo1 (catalog 595501, Calbiochem); 100 mM in DMSO • 2) SAH (catalog A-9384, Sigma); 4.69 mM with 0.06 N HCl • 3) Aristeromycin (catalog A-0928, Sigma); 100 mM in DMSO • 4) NAD (catalog 43410, Sigma); 14.5 mM in water • 5) EDTA in 500 mM pH 8 (catalog BP2482-100, Fisher) • 6) DTT stock 200 mM in water • 7) AHCY enzyme (diluted with 100 mM tris pH7.5) Dilutions Immediately Prior to use: • 1. SAH 750 μM (10×) (dilute with 100 mM Tris pH 7.5) • 2. Aristeromycin (10×) (dilute to 1 mM with 100 mM Tris pH7.5) • 3. ThioGlo1 (10×) (dilute to 100 μM in Tris pH7.5) • 4. AHCY assay buffer (3.3×): 3 μM DTT, 150 μM NAD, 3 mM EDTA Protocol: As per 96-Assay Plate Well • 1. […] Read plate (Ex 380 Em 510)

Row | IC50 (AHCY) [nM] | IC50 [2] [nM] | SMILES | oxidative damage and cognitive impairment [1]
1 |  |  | Nc1nccc2c1ncn2[C@@H]1O[C@H](CO)[C@@H](O)[C@H]1O [3-deaza-adenosine] | prevent oxidative damage and cognitive impairment
2 | 1.5 | 42 | Nc1ncc(F)c2c1ncn2[C@@H]1CC[C@@H](O)[C@H]1O [Example 1, (1R,2S,3R)-3-(4-amino-7-fluoro-1H-imidazo[4,5-c]pyridin-1-yl)cyclopentane-1,2-diol] | 
3 | 28.2 | 17900 | Nc1ncc(F)c2c1ncn2[C@@H]1C=C[C@@H](O)[C@H]1O [Example 2, (1S, 2R, 5R)-5-(4-amino-7-fluoro-1H-imidazo[4,5-c]pyridin-1-yl)cyclopent-3-ene-1,2-diol] | 
